Assay results from patent publication US20090176839A1, “FORMULATIONS OF 3-(6-(1-(2,2-DIFLUOROBENZO[D][1,3]DIOXOL-5-YL) CYCLOPROPANECARBOXAMIDO)-3-METHYLPYRIDIN-2-YL)BENZOIC ACID” (priority 2007, published 2009).
Entries after “also recorded” stand apart in the source; their conditions may differ. Like-named read-outs stand apart in the source and are kept apart here.

Assays:
male mice = test: In vivo mouse micronucleus assay; conditions: oral gavage at doses up to 2000 mg/kg
Method: (§1) The potential for genetic toxicology was tested using standard GLP bacterial mutation (Ames), Chinese hamster ovary (CHO) chromosome aberration, and in vivo mouse micronucleus assays: Compound 1 was negative in all tests. […] With the exception of the preliminary 7-day toxicity studies, all studies were performed according to GLP regulations.

[1] = tested on: Chinese hamster ovary (CHO) cell; test: Chinese hamster ovary (CHO) chromosome aberration assay; format: cell-based; conditions: GLP
Method: as §1

[2] = Tissue distribution in male rats after single oral dose of 75 mg/kg; format: in vivo, male Sprague Dawley rats; conditions: 75 mg/kg oral; for Kp at 1 h / Kp at 4 hr / Kp at 12 hr / Kp / Kp at 48 hr: po, 75 mg/kg
Method: Following a single oral administration of unlabelled Compound 1 to rats, the highest distribution was to the liver followed by lung, pancreas and brain with tissue-to-plasma ratios of 0.73, 0.19, 0.13 and 0.02, respectively, at one hour following oral administration of 75 mg/kg. Elimination of Compound 1 was nearly complete from all tissues 48 hours after administration (concentrations less than 1 μg/mL). Although the distribution to the lung is low relative to plasma, the concentrations measured in lung at low and moderate doses are predicted to be efficacious.

[3] = Single oral pharmacokinetics of the free form in suspension in male rats; format: in vivo, male Sprague Dawley rats; conditions: for AUC(0-inf): free form suspension, mean (SD)
Method: The pharmacokinetics of Compound 1 were assessed in the same species used in the toxicology studies: CD-1 mice, Sprague Dawley rats and beagle dogs. The pharmacokinetics of Compound 1 were also assessed in cynomolgus monkeys.
Non-validated research grade assays were used for these analyses. All pharmacokinetic studies were conducted using fed animals unless otherwise specified.
At 600 mg/kg, the increase in systemic exposure was less than proportional to the increase in dose. Bioavailability ranged from 47% to ˜100% across the 1 to 600 mg/kg oral dose range in rats, indicating excellent absorption of the compound.

[4] = Stability of 6 mg/mL aqueous methylcellulose suspension (HPLC, XRPD); format: physicochemical; conditions: room temperature; for Peak purity %: 6 mg/mL aqueous methylcellulose suspension
Method: A 100 mL stock solution of 0.5% by weight methylcellulose was prepared by stirring 0.5 g of methylcellulose with 99.5 g of purified water until completely dissolved (approximately 24 hours). […] The desired amount of 0.5% methylcellulose stock solution for making a 6 mg/mL based on free base (6.48 mg/mL based on HCl salt) was transferred into the vial and sonicated for 20 minutes and homogenized for approximately 5 minutes.
The methylcellulose formulation was also subjected to HPLC analysis at 0 and 24 hours: […]

[5] = Sprague Dawley, rat, male rats, Brain
[6] = Sprague Dawley, rat, male rats, Liver
[7] = Sprague Dawley, rat, male rats, Lung
[8] = Sprague Dawley, rat, male rats, Pancreas
[9] = Sprague Dawley, rat, male rats, Plasma
[10] = Sprague Dawley, rat, plasma, po, male rats, free form, 1 mg/kg
[11] = Sprague Dawley, rat, plasma, po, male rats, free form, 30 mg/kg
[12] = Sprague Dawley, rat, plasma, po, male rats, free form, 150 mg/kg
[13] = Sprague Dawley, rat, plasma, po, male rats, free form, 300 mg/kg
[14] = Sprague Dawley, rat, plasma, po, male rats, free form, 600 mg/kg
[15] = male rats, free form, 150 mg/kg
[16] = male rats, free form, 300 mg/kg
[17] = male rats, free form, 600 mg/kg

Cc1ccc(NC(=O)C2(c3ccc4c(c3)OC(F)(F)O4)CC2)nc1-c1cccc(C(=O)O)c1 [Compound 1, 3-(6-(1-(2,2-difluorobenzo[d][1,3]dioxol-5-yl)cyclopropanecarboxamido)-3-methylpyridin-2-yl)benzoic acid]
number of micronucleated polychromatic erythrocytes (male mice): negative; also recorded: did not induce a significant increase
clastogenicity (chromosome aberrations) [1]: negative
Cmax [2, 5]: 957 ng/mL
Tmax [2, 5]: 4 h
AUC ([2]; Sprague Dawley, rat, male rats, Brain, footnote a: AUCall): 9.3 µg·h/mL
concentration at 12 hr ([2]; Sprague Dawley, rat, male rats, Brain, read-out: Clast): 546 ng/mL
AUC(0-inf) [2, 6]: 885 µg·h/mL
Cmax [2, 6]: 38100 ng/mL
Tmax [2, 6]: 4 h
half-life [2, 6]: 8.06 h
concentration at 48 hr ([2]; Sprague Dawley, rat, male rats, Liver, read-out: Clast): 965 ng/mL
AUC(0-inf) [2, 7]: 187 µg·h/mL
Cmax [2, 7]: 9140 ng/mL
Tmax [2, 7]: 1 h
half-life [2, 7]: 7.79 h
concentration at 48 hr ([2]; Sprague Dawley, rat, male rats, Lung, read-out: Clast): 189 ng/mL
AUC(0-inf) [2, 8]: 132 µg·h/mL
Cmax [2, 8]: 6830 ng/mL
Tmax [2, 8]: 4 h
half-life [2, 8]: 6.87 h
concentration at 48 hr ([2]; Sprague Dawley, rat, male rats, Pancreas, read-out: Clast): 86 ng/mL
AUC(0-inf) [2, 9]: 980 µg·h/mL
Cmax [2, 9]: 59100 ng/mL
Tmax [2, 9]: 4 h
half-life [2, 9]: 6.15 h
concentration at 48 hr ([2]; Sprague Dawley, rat, male rats, Plasma, read-out: Clast): 542 ng/mL
Tissue Concentrations, Brain ([2]; male rats, 1 hr): 0.93 μg/mL or μg/g
Tissue Concentrations, Liver ([2]; male rats, 1 hr): 34.7 μg/mL or μg/g
Tissue Concentrations, Lung ([2]; male rats, 1 hr): 9.14 μg/mL or μg/g
Tissue Concentrations, Pancreas ([2]; male rats, 1 hr): 6.03 μg/mL or μg/g
Tissue Concentrations, Plasma ([2]; male rats, 1 hr): 47.3 μg/mL or μg/g
Tissue Concentrations, Brain ([2]; male rats, 4 hr): 0.96 μg/mL or μg/g
Tissue Concentrations, Liver ([2]; male rats, 4 hr): 38.1 μg/mL or μg/g
Tissue Concentrations, Lung ([2]; male rats, 4 hr): 8.99 μg/mL or μg/g
Tissue Concentrations, Pancreas ([2]; male rats, 4 hr): 6.83 μg/mL or μg/g
Tissue Concentrations, Plasma ([2]; male rats, 4 hr): 59.1 μg/mL or μg/g
Tissue Concentrations, Brain ([2]; male rats, 12 hr): 0.55 μg/mL or μg/g
Tissue Concentrations, Liver ([2]; male rats, 12 hr): 26.3 μg/mL or μg/g
Tissue Concentrations, Lung ([2]; male rats, 12 hr): 5.17 μg/mL or μg/g
Tissue Concentrations, Pancreas ([2]; male rats, 12 hr): 3.65 μg/mL or μg/g
Tissue Concentrations, Plasma ([2]; male rats, 12 hr): 24.8 μg/mL or μg/g
Tissue Concentrations, Brain ([2]; male rats, 48 hr): BLQ
Tissue Concentrations, Liver ([2]; male rats, 48 hr): 0.97 μg/mL or μg/g
Tissue Concentrations, Lung ([2]; male rats, 48 hr): 0.19 μg/mL or μg/g
Tissue Concentrations, Pancreas ([2]; male rats, 48 hr): 0.09 μg/mL or μg/g
Tissue Concentrations, Plasma ([2]; male rats, 48 hr): 0.54 μg/mL or μg/g
tlast ([2]; male rats, Brain): 12 h
tlast ([2]; male rats, Liver): 48 h
tlast ([2]; male rats, Lung): 48 h
tlast ([2]; male rats, Pancreas): 48 h
tlast ([2]; male rats, Plasma): 48 h
concentration at 48 h ([2]; male, Sprague Dawley, rat, all tissues (liver, lung, pancreas, brain), rats, 48 hours after administration, read-out: concentrations in all tissues): < 1000 ng/mL
Kp at 1 h ([2]; male, Sprague Dawley, rat, brain, male rats, 1 hr, read-out: Tissue/Plasma Ratio, Brain): 0.02
Kp at 4 hr ([2]; male, Sprague Dawley, rat, brain, male rats, 4 hr, read-out: Tissue/Plasma Ratio, Brain): 0.02
Kp at 12 hr ([2]; male, Sprague Dawley, rat, brain, male rats, 12 hr, read-out: Tissue/Plasma Ratio, Brain): 0.02
Kp ([2]; male, Sprague Dawley, rat, brain, male rats, Brain, read-out: Cmax Ratio (Tissue/Plasma)): 0.02
Kp ([2]; male, Sprague Dawley, rat, brain, rats, 1 to 48 hours after administration, read-out: tissue-to-plasma concentration ratios, brain): 0.02
Kp at 1 h ([2]; male, Sprague Dawley, rat, liver, male rats, 1 hr, read-out: Tissue/Plasma Ratio, Liver): 0.73
Kp at 4 hr ([2]; male, Sprague Dawley, rat, liver, male rats, 4 hr, read-out: Tissue/Plasma Ratio, Liver): 0.64
Kp at 12 hr ([2]; male, Sprague Dawley, rat, liver, male rats, 12 hr, read-out: Tissue/Plasma Ratio, Liver): 1.06
Kp at 48 hr ([2]; male, Sprague Dawley, rat, liver, male rats, 48 hr, read-out: Tissue/Plasma Ratio, Liver): 1.78
Kp ([2]; male, Sprague Dawley, rat, liver, male rats, Liver, read-out: Cmax Ratio (Tissue/Plasma)): 0.64
Kp ([2]; male, Sprague Dawley, rat, liver, rats, 1 to 48 hours after administration, read-out: tissue-to-plasma concentration ratios, liver): 0.7 to 1.8
Kp at 1 h ([2]; male, Sprague Dawley, rat, lung, male rats, 1 hr, read-out: Tissue/Plasma Ratio, Lung): 0.19
Kp at 4 hr ([2]; male, Sprague Dawley, rat, lung, male rats, 4 hr, read-out: Tissue/Plasma Ratio, Lung): 0.15
Kp at 12 hr ([2]; male, Sprague Dawley, rat, lung, male rats, 12 hr, read-out: Tissue/Plasma Ratio, Lung): 0.21
Kp at 48 hr ([2]; male, Sprague Dawley, rat, lung, male rats, 48 hr, read-out: Tissue/Plasma Ratio, Lung): 0.35
Kp ([2]; male, Sprague Dawley, rat, lung, male rats, Lung, read-out: Cmax Ratio (Tissue/Plasma)): 0.15
Kp ([2]; male, Sprague Dawley, rat, lung, rats, 1 to 48 hours after administration, read-out: tissue-to-plasma concentration ratios, lung): 0.15 to 0.35
Kp at 1 h ([2]; male, Sprague Dawley, rat, pancreas, male rats, 1 hr, read-out: Tissue/Plasma Ratio, Pancreas): 0.13
Kp at 4 hr ([2]; male, Sprague Dawley, rat, pancreas, male rats, 4 hr, read-out: Tissue/Plasma Ratio, Pancreas): 0.12
Kp at 12 hr ([2]; male, Sprague Dawley, rat, pancreas, male rats, 12 hr, read-out: Tissue/Plasma Ratio, Pancreas): 0.15
Kp at 48 hr ([2]; male, Sprague Dawley, rat, pancreas, male rats, 48 hr, read-out: Tissue/Plasma Ratio, Pancreas): 0.15
Kp ([2]; male, Sprague Dawley, rat, pancreas, male rats, Pancreas, read-out: Cmax Ratio (Tissue/Plasma)): 0.12
Kp ([2]; male, Sprague Dawley, rat, pancreas, rats, 1 to 48 hours after administration, read-out: tissue-to-plasma concentration ratios, pancreas): 0.12 to 0.15
concentration at 48 hr ([3]; Sprague Dawley, rat, plasma, oral, male rats, free form, 1 mg/kg, read-out: Clast): 28.8 ng/mL
concentration at 48 h ([3]; Sprague Dawley, rat, plasma, oral, male rats, free form, 30 mg/kg, read-out: Clast): 44 ng/mL
concentration at 72 hr ([3]; Sprague Dawley, rat, plasma, oral, male rats, free form, 150 mg/kg, read-out: Clast): 51.6 ng/mL
concentration at 48 hr ([3]; Sprague Dawley, rat, plasma, oral, male rats, free form, 300 mg/kg, read-out: Clast): 1120 ng/mL
concentration at 72 hr ([3]; Sprague Dawley, rat, plasma, oral, male rats, free form, 600 mg/kg, read-out: Clast): 1240 ng/mL
AUC(0-inf) ([3]; Sprague Dawley, rat, plasma, po, male rats, nominal dose 1 mg/kg): 13.7 µg·h/mL
AUC(0-inf) ([3]; Sprague Dawley, rat, plasma, po, male rats, nominal dose 30 mg/kg): 369 µg·h/mL
AUC(0-inf) ([3]; Sprague Dawley, rat, plasma, po, male rats, nominal dose 150 mg/kg): 728 µg·h/mL
AUC(0-inf) ([3]; Sprague Dawley, rat, plasma, po, male rats, nominal dose 300 mg/kg): 2530 µg·h/mL
AUC(0-inf) ([3]; Sprague Dawley, rat, plasma, po, male rats, nominal dose 600 mg/kg): 3080 µg·h/mL
Cmax [3, 10]: 1100 ng/mL
Tmax [3, 10]: 3 h
Cmax [3, 11]: 28200 ng/mL
Tmax [3, 11]: 4 h
Cmax [3, 12]: 54700 ng/mL
Tmax [3, 12]: 4.67 h
Cmax [3, 13]: 181000 ng/mL
Tmax [3, 13]: 3.33 h
Cmax [3, 14]: 203000 ng/mL
Tmax [3, 14]: 4.67 h
F ([3]; male rats, free form, 1 mg/kg): >100%
tlast ([3]; male rats, free form, 1 mg/kg): 48 h
F ([3]; male rats, free form, 30 mg/kg): >100%
tlast ([3]; male rats, free form, 30 mg/kg): 48 h
F [3, 15]: 47%
tlast [3, 15]: 72 h
F [3, 16]: 81%
tlast [3, 16]: 48 h
F [3, 17]: 50%
tlast [3, 17]: 72 h
half-life ([3]; male, Sprague Dawley, rat, plasma, po, 1 mg/kg, male rats, free form, 1 mg/kg, read-out: t1/2 (converted)): 7.65 h
half-life ([3]; male, Sprague Dawley, rat, plasma, po, 30 mg/kg, male rats, free form, 30 mg/kg, read-out: t1/2 (converted)): 6.83 h
half-life ([3]; male, Sprague Dawley, rat, plasma, po, 150 mg/kg, male rats, free form, 150 mg/kg, read-out: t1/2 (converted)): 8.07 h
half-life ([3]; male, Sprague Dawley, rat, plasma, po, 300 mg/kg, male rats, free form, 300 mg/kg, read-out: t1/2 (converted)): 5.86 h
half-life ([3]; male, Sprague Dawley, rat, plasma, po, 600 mg/kg, male rats, free form, 600 mg/kg, read-out: t1/2 (converted)): 7.49 h
half-life ([3]; male, Sprague Dawley, rat, plasma, po, administered orally to rats, read-out: half-life): 5 to 9 h
half-life ([3]; male, Sprague Dawley, rat, plasma, po, male rats, 1 to 600 mg/kg oral dose range, read-out: terminal half-life): 5.9 to 8.1 h
bioavailability ([3]; male, Sprague Dawley, rat, plasma, rats, across the 1 to 600 mg/kg oral dose range): 47 to 100%
Tmax ([3]; male, Sprague Dawley, rat, plasma, rats, across the oral dose range, fed conditions): 3 to 4.7 h
clearance ([3]; rat): very low clearance
Peak purity % ([4]; T(0)): 99.41%
Peak purity % ([4]; T(24 h)): 99.37%
physically and chemically stable, time ([4]; methylcellulose formulation): at least 24 hrs
